Series [1] concerns the target T1, Human indoleamine 2,3-dioxygenase (IDO) (Homo sapiens, UniProt P14902).
T1 construct: purchased BPS Bioscience Inc
Briefly: Enzymatic test for IDO activity inhibition. Format: biochemical. The following applies: 40 nM IDO enzyme, 0.2 mM L-tryptophan, 60 minutes at 30° C. On the procedure: Human indoleamine 2,3-dioxygenase (IDO) was purchased from BPS Bioscience Inc. The enzymatic reaction of idoleamine 2,3-dioxygenase (IDO) was performed in a 96-well plate with a reaction volume of 20 μL. The reaction conditions were: 40 nM IDO enzyme, 0.2 mM L-tryptophan, 50 mM KPB (pH 6.5) buffer, 20 mM sodium L-L-ascorbate, 10 μM methylene blue, 0.2 mg/mL catalase, different concentrations of compounds containing <1% dimethyl sulfoxide. After reacting for 60 minutes at 30° C., 5 μL of 30% (w/v) trichloroacetic acid (in 50 mM KPB buffer) weres added to each well. The plate was incubated for 30 minutes at 50° C. to hydrolyze N-formyl-kynurenine to kynurenine. 25 μL of 2% (w/v) p-(dimethylamino)benzaldehyde (p-DMBA)/glacial acetic acid solution were added to each well. The absorbance at 490 nm was read on a BioTek Synergy H1 microplate reader […].
The stock solution of the test compound was prepared to 10 mM with dimethyl sulfoxide, diluted with dimethyl sulfoxide to the highest concentration of the test during the experiment, then diluted in 1:3 gradient, and generally diluted to 8 to 10 concentration points. Duplicate wells were set for each concentration point, and one reference compound was included in each experiment. The original data of the absorbance at 490 nm read on a microplate reader were analyzed. The inhibition of IDO enzyme activity was calculated at different concentrations of the test compound. The half-inhibitory concentration IC50 value of the compound was obtained by non-linear fitting analysis of inhibition percentage data by GraphPad Prism software.

Series [2] addresses T2, indoleamine 2,3-dioxygenase (IDO) in HeLa cells (Homo sapiens, UniProt P14902).
T2 construct: Interferon γ induced the expression of IDO in HeLa cells; host or cells: HeLa cells induced with interferon γ
Briefly: Cell model test for IDO activity inhibition (interferon γ induced HeLa cells). It is filed as cell-based. The following applies: interferon γ 50 ng/mL, 24 hours, read-out: Cytological Test IC50. On the procedure: Interferon γ induced the expression of IDO in HeLa cells. This model was used to test the inhibitory activity of compounds on indoleamine 2,3-dioxygenase (IDO). The culture medium of HeLa cells (ATCC) was phenol red-free RPMI-1640 containing 100 μM L-tryptophan. The stock solution of the test compound was prepared to 10 mM with dimethyl sulfoxide, and diluted with dimethyl sulfoxide to the highest concentration of the test during the experiment, then diluted in three-fold gradient, and generally diluted to 8 to 10 concentration points. Duplicate wells were set for each concentration point. The final concentration of DMSO was 0.5%, and internal reference compound was included in each experiment.
The procedure of the experiment was as follows: 20,000 HeLa cells (ATCC) per well were added on a 96-well culture plate and incubated overnight. After 24 hours, interferon γ (final concentration of 50 ng/mL) and different concentrations of the test compound and the internal reference compound were added to the incubated cells. After 24 hours, 140 μL of the supernatant/well was transferred to a new 96-well plate, and 10 μL of 6.1 N trichloroacetic acid was added to each well. The plate was incubated for 30 minutes at 50° C. to hydrolyze N-formyl-kynurenine to kynurenine. The reaction mixture was centrifuged at 2500 rpm for 10 minutes to remove the precipitate, and the supernatant (100 μL) was transferred to another new 96-well plate. 100 μL of 2% (W/V) p-(dimethylamino)benzaldehyde (p-DMBA)/glacial acetic acid solution was added to each well. The absorbance at 490 nm was read on a BioTek Synergy H1 microplate reader […].
The original data of the absorbance at 490 nm read on a microplate reader were analyzed. The inhibition of IDO enzyme activity was calculated at different concentrations of the test compound. The half-inhibitory concentration IC50 value of the compound was obtained by non-linear fitting analysis of inhibition percentage data by GraphPad Prism software.

Series [3] can be described thus: Pharmacokinetic (PK) analysis of rat plasma. It is filed as in vivo. The following applies: Sprague-Dawley, po, 20 mg/kg, SD rats, single gavage, 20 mg/10 mL/kg. The procedure: The pharmacokinetics test of the test compound was performed with Sprague Dawley (SD) rats (Shanghai Slac Laboratory Animal Co., LTD).
Mode of administration: Single gavage.
U Dosage: 20 mg/10 mL/kg.
Formulation prescription: 3% dimethylacetamide and 20% hydroxypropyl-3-cyclodextrin.
Sampling points: before administration and 15 minutes, 0.5, 1, 2, 4, 6, 8 and 24 hours after administration.
Plasma sampling and sample processing: • 1) 0.2 ml of intravenous blood was collected and placed in an EDTA-2K tube. The blood was centrifuged at 4° C. for 5 minutes at 6,000 rpm to separate the plasma, which was stored at −80° C. • 2) 160 μL of acetonitrile were added to 40 μL of plasma sample, standard, and internal reference. The mixture was shaken vertically for 3 minutes, and centrifuged at 4000 rpm for 10 minutes. 100 μL of the supernatant were taken, and then added with 100 μL of deionized water and mixed well. 100 μL of the resulting solution was taken for LC/MS/MS analysis. The instrument for plasma LC/MS/MS analysis was AB Sciex API 4000.
Liquid Chromatography Analysis: • Liquid chromatography conditions: Shimadzu LC-20AD pump • Chromatographic column: phenomenex Gemiu 5 μm C18 50×4.6 mm • Mobile phase: solution A was 0.1% formic acid solution, and solution B was acetonitrile • Flow rate: 0.8 mL/min • Elution time: 0-3.01 minutes and the eluent was as follows:
• Mass spectrometry analysis: setup conditions of mass spectrometer: positive ion electrospray ionization (ESI) mode. • Experimental results: the main parameters of pharmacokinetics were calculated by WinNonlin 6.1 and the experimental results are shown in the following table: […]

For series [4], the system named is mouse rectal cancer cell line Colon26. The series can be described thus: Anti-tumor effect in Colon26 tumor-bearing mouse model. Format: in vivo, mouse (Balb/c). The following applies: Colon26 tumor-bearing mice, 10 mg/kg, D12. The text has this: The present invention further used the Colon26 tumor-bearing mouse model to test the anti-tumor effect of the example compounds. The Colon26 tumor-bearing mouse model was the mouse rectal cancer cell line Colon26 purchased from Guangzhou Ginio Biological Technology Co., Ltd., and the culture medium used was RPMI1640 containing 10% fetal bovine serum. The mouse strain used for tumor-bearing was Balb/c purchased from Sino-British SIPPR/BK Lab Animal Co., Ltd. At the time of implanting, the Colon26 cells in logarithmic growth phase were collected and mixed to 10 million cells/ml. Each mouse was implanted subcutaneously with 100 μl of one million cells. When the tumor grew to about 100 cubic millimeters, animals were randomly divided into groups with 8 animals per group. Drug administration was started (D0).
Mode of administration: intragastric administration, twice a day.
Formulation prescription: 3% dimethylacetamide and 20% hydroxypropyl-β-cyclodextrin. • Administration period and tumor measurement: The administration period was 13 days. The tumor volume was measured, the mice were weighed, and the data were recorded, 3 times per week. The calculation formula of tumor volume (V) is: V=½a×b2 where a and b represent length and width, respectively. The calculation formula of T/C is: T/C (%)=100×ΔT/ΔC. Tumor inhibition rate (%)=1−T/C (%). • Experimental results: The antitumor effect of the compound of Example 15 in Colon26 tumor-bearing mouse model is shown in the following table.
Under the same experimental conditions, the dosage was adjusted. The anti-tumor effect of Example 15 and its optical isomers 18-(1) and 18-(2) in Colon26 tumor-bearing mouse model is shown in the following table: […]

What is called IC50 is the concentration needed to halve the response being measured. By AUC(0-inf) is commonly meant total exposure, with the tail of the curve extrapolated. What is called Cmax is the peak of the concentration-time curve. Broadly, the Tmax is the time from dosing to the highest level. By half-life is commonly meant the time needed for the level to fall by half in the phase considered. A high value points to slow loss.

T2 sequence (P14902 whole entry): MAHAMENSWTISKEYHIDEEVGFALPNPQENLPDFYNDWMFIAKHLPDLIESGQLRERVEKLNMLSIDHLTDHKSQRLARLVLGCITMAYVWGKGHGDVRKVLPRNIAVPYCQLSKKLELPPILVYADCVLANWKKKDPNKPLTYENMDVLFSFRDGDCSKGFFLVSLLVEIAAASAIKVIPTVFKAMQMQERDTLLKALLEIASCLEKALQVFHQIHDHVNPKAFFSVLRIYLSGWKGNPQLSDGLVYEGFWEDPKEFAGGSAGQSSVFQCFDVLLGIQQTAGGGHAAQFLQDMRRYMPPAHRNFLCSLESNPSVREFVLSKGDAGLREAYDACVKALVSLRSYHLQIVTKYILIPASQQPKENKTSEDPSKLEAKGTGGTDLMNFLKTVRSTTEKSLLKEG
T1 sequence (P14902 whole entry): as above

Turning to `CNC(=O)C(=O)NCCNc1nonc1/C(=N/O)Nc1ccc(F)c(Br)c1` [Example 2, (Z)—N^1-(2-((4-(N-(3-bromo-4-fluorophenyl)-N′-hydroxycarbamimidoyl)-1,2,5-oxadiazol-3-yl)amino)ethyl)-N^2-methyloxalamide], the IC50 in series [1] worked out at 0.071 µM; in series [2], 0.018 µM.
Taken in the same sequence, the figures for `NS(=O)(=O)NC1CCC(Nc2nonc2/C(=N/O)Nc2ccc(F)c(Br)c2)CC1` (stereo not shown) [Example 10, (Z)—N-(3-bromo-4-fluorophenyl)-N′-hydroxy-4-((4-(sulfamoylamino)cyclohexyl)amino)-1,2,5-oxadiazole-3-carboximidamide] were 0.019 µM and 0.037 µM.
On to `CCNC(=O)C(=O)NCCNc1nonc1/C(=N/O)Nc1ccc(F)c(Br)c1` [Example 3, (Z)—N^1-(2-((4-(N-(3-bromo-4-fluorophenyl)-N′-hydroxycarbamimidoyl)-1,2,5-oxadiazol-3-yl)amino)ethyl)-N^2-ethyloxalamide], for which the IC50 in series [1] was found to be 0.056 µM; in series [2] it was 0.02 µM.
In the case of `CN=S(C)(=O)CCNc1nonc1/C(=N/O)Nc1ccc(F)c(Br)c1` (stereo not shown) [Example 16, (Z)—N-(3-bromo-4-fluorophenyl)-4-((2-(N,S-dimethylsulfonimidoyl)ethyl)amino)-N′-hydroxy-1,2,5-oxadiazole-3-carboximidamide], the IC50 was found to be 0.066 µM in series [1] and 0.019 µM in series [2].
On the same counts, the results for `O=C(NCCNc1nonc1/C(=N/O)Nc1ccc(F)c(Br)c1)C(=O)NC1CC1` [Example 7, (Z)—N^1-(2-((4-(N-(3-bromo-4-fluorophenyl)-N′-hydroxycarbamimidoyl)-1,2,5-oxadiazol-3-yl)amino)ethyl)-N^2-cyclopropyloxalamide] are 0.053 µM and 0.053 µM.
Consider `CS(=O)(=O)N=S(C)(=O)CCNc1nonc1/C(=N/O)Nc1ccc(F)c(Br)c1` (stereo not shown) [Example 14, (Z)—N-(3-bromo-4-fluorophenyl)-N′-hydroxy-4-((2-(S-methyl-N-(methylsulfonyl)sulfonimidoyl)ethyl)amino)-1,2,5-oxadiazole-3-carboximidamide], for which, in series [3], the AUC(0-inf) was determined as 7540 ng·h/mL, the Cmax amounted to 1050 ng/mL, the Tmax amounted to 0.5 h and the half-life was 5.5 h. Further, the IC50 in series [1] was 0.038 µM. Moreover, in series [2], the IC50 stood at 0.012 µM.
As to `NC(=O)C(=O)NCCNc1nonc1/C(=N/O)Nc1ccc(F)c(Br)c1` [Example 1, (Z)—N^1-(2-((4-(N-(3-bromo-4-fluorophenyl)-N′-hydroxycarbamimidoyl)-1,2,5-oxadiazol-3-yl)amino)ethyl)oxalamide], in series [3], the AUC(0-inf) turned out to be 8620 ng·h/mL, the concentration peaked (Cmax) at 3680 ng/mL, the Tmax stood at 0.5 h and the half-life was 2.7 h. In addition, the 50% inhibitory concentration (IC50) in series [1] stood at 0.07 µM. In addition, in series [2], the IC50 was 0.015 µM.
Regarding `C[S@@](=O)(CCNc1nonc1/C(=N/O)Nc1ccc(F)c(Br)c1)=NS(=O)(=O)C1CC1` [Example 18-①, (R,Z)—N-(3-bromo-4-fluorophenyl)-4-((2-(N-(cyclopropylsulfonyl)-S-methylsulfonimidoyl)ethyl)amino)-N′-hydroxy-1,2,5-oxadiazole-3-carboximidamide], the “Tumor inhibition rate (%) D12” value in series [4] amounted to 72.54%. In addition, in series [3], the AUC(0-inf) turned out to be 7320 ng·h/mL, the peak level (Cmax) was 2770 ng/mL, the time of peak concentration (Tmax) stood at 0.5 h and the half-life was 2.03 h. Moreover, the IC50 in series [1] stood at 0.019 µM. For the same compound, in series [2], the IC50 was 0.011 µM.
`NS(=O)(=O)NC1CC(Nc2nonc2/C(=N/O)Nc2ccc(F)c(Br)c2)C1` (stereo not shown) [Example 11, (Z)—N-(3-bromo-4-fluorophenyl)-N′-hydroxy-4-((3-(sulfamoylamino)cyclobutyl)amino)-1,2,5-oxadiazole-3-carboximidamide]: the IC50 was determined as 0.042 µM in series [1] and 0.038 µM in series [2].
As for `O=C(NO)C(=O)NCCNc1nonc1/C(=N/O)Nc1ccc(F)c(Br)c1` [Example 8, (Z)—N^1-(2-((4-(N-(3-bromo-4-fluorophenyl)-N′-hydroxycarbamimidoyl)-1,2,5-oxadiazol-3-yl)amino)ethyl)-N^2-hydroxyoxalamide], the IC50 turned out to be 0.076 µM in series [1] and 0.033 µM in series [2].
On the same counts, the results for `Cc1ccc(S(=O)(=O)N=S(C)(=O)NCCNc2nonc2C(=NO)Nc2ccc(F)c(Br)c2)cc1` (stereo not shown) [Example 13, (Z)—N-(3-bromo-4-fluorophenyl)-N′-hydroxy-4-{[2-({S-methyl-N-[(4-methylphenyl)sulfonyl]sulfonimidoyl}amino)ethyl]amino}-1,2,5-oxadiazole-3-carboximidamide] are 0.064 µM and 0.047 µM.
Take `CCS(=O)(CCNc1nonc1/C(=N/O)Nc1ccc(F)c(Br)c1)=NC` (stereo not shown) [Example 17, (Z)—N-(3-bromo-4-fluorophenyl)-N′-hydroxy-4-((2-(N-methylethylsulfonimidoyl)ethyl)amino)-1,2,5-oxadiazole-3-carboximidamide]: the IC50 in series [1] worked out at 0.075 µM; in series [2], 0.016 µM.

The values are drawn from patent US20190040025A1, “INDOLEAMINE 2,3-DIOXYGENASE INHIBITOR, PREPARATION METHOD THEREFOR, AND APPLICATION” (Jiangsu Hansoh Pharmaceutical Group Co., Ltd., priority 2016, published 2019).
